{"source": "the supplement of paper PMC4862054"}
{"tested_on": "HCC1937", "assay": "normalised response (% of control), CellTiter-Glo; higher = more viable cells (100 = DMSO, 0 = benzethonium chloride kill control)", "details": "incubation time: 72 h", "outline": "(§1)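 A 20 µl suspension of breast cancer cells was seeded into each well of 384-well plates containing compound at 5 concentrations in 10-fold steps over a compound-specific 10,000-fold range. After 72 h incubation, CellTox Green fluorescence (485/520 nm) was read first, and CellTiter-Glo luminescence was read after 10 min at room temperature. Each plate was normalised against 0.1 % DMSO (100) and a positive kill control (0), and each value is the normalised signal at one concentration.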", "units": {"normalised response": "%"}}
{"compound": "Cc1ccc([N+](=O)[O-])cc1S(=O)(=O)N(C)/N=C/c1cnc2ccc(Br)cn12", "note": "[PIK-75] (1000 nM)", "normalised response": 21.6}
{"compound": "CC(=O)c1c(C)c2cnc(Nc3ccc(N4CCNCC4)cn3)nc2n(C2CCCC2)c1=O", "note": "[Palbociclib] (1000 nM)", "normalised response": 94.8}
{"compound": "COc1cc(F)c(F)c(Nc2ccc(I)cc2F)c1NS(=O)(=O)C1(C[C@H](O)CO)CC1", "note": "[Refametinib] (1000 nM)", "normalised response": 79.4}
{"tested_on": "MDA-MB-231", "assay": "normalised response (% of control), CellTiter-Glo; higher = more viable cells (100 = DMSO, 0 = benzethonium chloride kill control)", "details": "incubation time: 72 h", "outline": "as §1", "units": {"normalised response": "%"}}
{"compound": "C[C@]1(O)C[C@@H](c2nc(-c3ccc4ccc(-c5ccccc5)nc4c3)c3c(N)nccn32)C1", "note": "[Linsitinib] (1000 nM)", "normalised response": 85.9}
{"compound": "Cc1ccc([N+](=O)[O-])cc1S(=O)(=O)N(C)/N=C/c1cnc2ccc(Br)cn12", "note": "[PIK-75] (1000 nM)", "normalised response": 1.8}
{"compound": "CC(=O)c1c(C)c2cnc(Nc3ccc(N4CCNCC4)cn3)nc2n(C2CCCC2)c1=O", "note": "[Palbociclib] (1000 nM)", "normalised response": 84}
{"compound": "COc1cc(F)c(F)c(Nc2ccc(I)cc2F)c1NS(=O)(=O)C1(C[C@H](O)CO)CC1", "note": "[Refametinib] (1000 nM)", "normalised response": 59.4}
{"tested_on": "CAL-85-1", "assay": "normalised response (% of control), CellTiter-Glo; higher = more viable cells (100 = DMSO, 0 = benzethonium chloride kill control)", "details": "incubation time: 72 h", "outline": "as §1", "units": {"normalised response": "%"}}
{"compound": "C[C@]1(O)C[C@@H](c2nc(-c3ccc4ccc(-c5ccccc5)nc4c3)c3c(N)nccn32)C1", "note": "[Linsitinib] (1000 nM)", "normalised response": 85.5}
{"compound": "Cc1ccc([N+](=O)[O-])cc1S(=O)(=O)N(C)/N=C/c1cnc2ccc(Br)cn12", "note": "[PIK-75] (1000 nM)", "normalised response": 1.64}
{"compound": "CC(=O)c1c(C)c2cnc(Nc3ccc(N4CCNCC4)cn3)nc2n(C2CCCC2)c1=O", "note": "[Palbociclib] (1000 nM)", "normalised response": 104}
{"compound": "COc1cc(F)c(F)c(Nc2ccc(I)cc2F)c1NS(=O)(=O)C1(C[C@H](O)CO)CC1", "note": "[Refametinib] (1000 nM)", "normalised response": 52.2}
{"tested_on": "MDA-MB-436", "assay": "normalised response (% of control), CellTiter-Glo; higher = more viable cells (100 = DMSO, 0 = benzethonium chloride kill control)", "details": "incubation time: 72 h", "outline": "as §1", "units": {"normalised response": "%"}}
{"compound": "C[C@]1(O)C[C@@H](c2nc(-c3ccc4ccc(-c5ccccc5)nc4c3)c3c(N)nccn32)C1", "note": "[Linsitinib] (1000 nM)", "normalised response": 95.5}
{"compound": "Cc1ccc([N+](=O)[O-])cc1S(=O)(=O)N(C)/N=C/c1cnc2ccc(Br)cn12", "note": "[PIK-75] (1000 nM)", "normalised response": 15.9}
{"compound": "CC(=O)c1c(C)c2cnc(Nc3ccc(N4CCNCC4)cn3)nc2n(C2CCCC2)c1=O", "note": "[Palbociclib] (1000 nM)", "normalised response": 96.6}
{"compound": "COc1cc(F)c(F)c(Nc2ccc(I)cc2F)c1NS(=O)(=O)C1(C[C@H](O)CO)CC1", "note": "[Refametinib] (1000 nM)", "normalised response": 78.4}
{"tested_on": "Hs578T", "assay": "normalised response (% of control), CellTiter-Glo; higher = more viable cells (100 = DMSO, 0 = benzethonium chloride kill control)", "details": "incubation time: 72 h", "outline": "as §1", "units": {"normalised response": "%"}}
{"compound": "C[C@]1(O)C[C@@H](c2nc(-c3ccc4ccc(-c5ccccc5)nc4c3)c3c(N)nccn32)C1", "note": "[Linsitinib] (1000 nM)", "normalised response": 101}
{"compound": "Cc1ccc([N+](=O)[O-])cc1S(=O)(=O)N(C)/N=C/c1cnc2ccc(Br)cn12", "note": "[PIK-75] (1000 nM)", "normalised response": 3.83}
{"compound": "CC(=O)c1c(C)c2cnc(Nc3ccc(N4CCNCC4)cn3)nc2n(C2CCCC2)c1=O", "note": "[Palbociclib] (1000 nM)", "normalised response": 93.3}
{"compound": "COc1cc(F)c(F)c(Nc2ccc(I)cc2F)c1NS(=O)(=O)C1(C[C@H](O)CO)CC1", "note": "[Refametinib] (1000 nM)", "normalised response": 80.1}
{"tested_on": "HCC1143", "assay": "normalised response (% of control), CellTiter-Glo; higher = more viable cells (100 = DMSO, 0 = benzethonium chloride kill control)", "details": "incubation time: 72 h", "outline": "as §1", "units": {"normalised response": "%"}}
{"compound": "C[C@]1(O)C[C@@H](c2nc(-c3ccc4ccc(-c5ccccc5)nc4c3)c3c(N)nccn32)C1", "note": "[Linsitinib] (1000 nM)", "normalised response": 88.7}
{"compound": "Cc1ccc([N+](=O)[O-])cc1S(=O)(=O)N(C)/N=C/c1cnc2ccc(Br)cn12", "note": "[PIK-75] (1000 nM)", "normalised response": 13.3}
{"compound": "CC(=O)c1c(C)c2cnc(Nc3ccc(N4CCNCC4)cn3)nc2n(C2CCCC2)c1=O", "note": "[Palbociclib] (1000 nM)", "normalised response": 80.3}
{"compound": "COc1cc(F)c(F)c(Nc2ccc(I)cc2F)c1NS(=O)(=O)C1(C[C@H](O)CO)CC1", "note": "[Refametinib] (1000 nM)", "normalised response": 77.2}
{"tested_on": "SK-BR-3", "assay": "normalised response (% of control), CellTiter-Glo; higher = more viable cells (100 = DMSO, 0 = benzethonium chloride kill control)", "details": "incubation time: 72 h", "outline": "as §1", "units": {"normalised response": "%"}}
{"compound": "C[C@]1(O)C[C@@H](c2nc(-c3ccc4ccc(-c5ccccc5)nc4c3)c3c(N)nccn32)C1", "note": "[Linsitinib] (1000 nM)", "normalised response": 69.8}
{"compound": "Cc1ccc([N+](=O)[O-])cc1S(=O)(=O)N(C)/N=C/c1cnc2ccc(Br)cn12", "note": "[PIK-75] (1000 nM)", "normalised response": 0.25}
{"compound": "CC(=O)c1c(C)c2cnc(Nc3ccc(N4CCNCC4)cn3)nc2n(C2CCCC2)c1=O", "note": "[Palbociclib] (1000 nM)", "normalised response": 75.9}
{"compound": "COc1cc(F)c(F)c(Nc2ccc(I)cc2F)c1NS(=O)(=O)C1(C[C@H](O)CO)CC1", "note": "[Refametinib] (1000 nM)", "normalised response": 82.4}
{"tested_on": "HDQ-P1", "assay": "normalised response (% of control), CellTiter-Glo; higher = more viable cells (100 = DMSO, 0 = benzethonium chloride kill control)", "details": "incubation time: 72 h", "outline": "as §1", "units": {"normalised response": "%"}}
{"compound": "C[C@]1(O)C[C@@H](c2nc(-c3ccc4ccc(-c5ccccc5)nc4c3)c3c(N)nccn32)C1", "note": "[Linsitinib] (1000 nM)", "normalised response": 76.8}
{"compound": "Cc1ccc([N+](=O)[O-])cc1S(=O)(=O)N(C)/N=C/c1cnc2ccc(Br)cn12", "note": "[PIK-75] (1000 nM)", "normalised response": 16.7}
{"compound": "CC(=O)c1c(C)c2cnc(Nc3ccc(N4CCNCC4)cn3)nc2n(C2CCCC2)c1=O", "note": "[Palbociclib] (1000 nM)", "normalised response": 105}
{"compound": "COc1cc(F)c(F)c(Nc2ccc(I)cc2F)c1NS(=O)(=O)C1(C[C@H](O)CO)CC1", "note": "[Refametinib] (1000 nM)", "normalised response": 54.5}
{"tested_on": "CAL-51", "assay": "normalised response (% of control), CellTox Green; higher = less cell death (100 = DMSO, 0 = benzethonium chloride kill control)", "details": "incubation time: 72 h", "outline": "as §1", "units": {"normalised response": "%"}}
{"compound": "C[C@]1(O)C[C@@H](c2nc(-c3ccc4ccc(-c5ccccc5)nc4c3)c3c(N)nccn32)C1", "note": "[Linsitinib] (100 nM)", "normalised response": 95.5}
{"compound": "C[C@]1(O)C[C@@H](c2nc(-c3ccc4ccc(-c5ccccc5)nc4c3)c3c(N)nccn32)C1", "note": "[Linsitinib] (1000 nM)", "normalised response": 104}
{"compound": "Cc1ccc([N+](=O)[O-])cc1S(=O)(=O)N(C)/N=C/c1cnc2ccc(Br)cn12", "note": "[PIK-75] (1000 nM)", "normalised response": 70.6}
{"compound": "CC(=O)c1c(C)c2cnc(Nc3ccc(N4CCNCC4)cn3)nc2n(C2CCCC2)c1=O", "note": "[Palbociclib] (1000 nM)", "normalised response": 126}
{"compound": "COc1cc(F)c(F)c(Nc2ccc(I)cc2F)c1NS(=O)(=O)C1(C[C@H](O)CO)CC1", "note": "[Refametinib] (1000 nM)", "normalised response": 101}
{"tested_on": "BT-549", "assay": "normalised response (% of control), CellTox Green; higher = less cell death (100 = DMSO, 0 = benzethonium chloride kill control)", "details": "incubation time: 72 h", "outline": "as §1", "units": {"normalised response": "%"}}
{"compound": "C[C@]1(O)C[C@@H](c2nc(-c3ccc4ccc(-c5ccccc5)nc4c3)c3c(N)nccn32)C1", "note": "[Linsitinib] (100 nM)", "normalised response": 102}
{"compound": "C[C@]1(O)C[C@@H](c2nc(-c3ccc4ccc(-c5ccccc5)nc4c3)c3c(N)nccn32)C1", "note": "[Linsitinib] (1000 nM)", "normalised response": 108}
{"compound": "Cc1ccc([N+](=O)[O-])cc1S(=O)(=O)N(C)/N=C/c1cnc2ccc(Br)cn12", "note": "[PIK-75] (1000 nM)", "normalised response": 35.8}
{"compound": "CC(=O)c1c(C)c2cnc(Nc3ccc(N4CCNCC4)cn3)nc2n(C2CCCC2)c1=O", "note": "[Palbociclib] (1000 nM)", "normalised response": 109}
{"compound": "COc1cc(F)c(F)c(Nc2ccc(I)cc2F)c1NS(=O)(=O)C1(C[C@H](O)CO)CC1", "note": "[Refametinib] (1000 nM)", "normalised response": 115}
{"tested_on": "CAL-120", "assay": "normalised response (% of control), CellTox Green; higher = less cell death (100 = DMSO, 0 = benzethonium chloride kill control)", "details": "incubation time: 72 h", "outline": "as §1", "units": {"normalised response": "%"}}
{"compound": "C[C@]1(O)C[C@@H](c2nc(-c3ccc4ccc(-c5ccccc5)nc4c3)c3c(N)nccn32)C1", "note": "[Linsitinib] (100 nM)", "normalised response": 97.2}
{"compound": "C[C@]1(O)C[C@@H](c2nc(-c3ccc4ccc(-c5ccccc5)nc4c3)c3c(N)nccn32)C1", "note": "[Linsitinib] (1000 nM)", "normalised response": 94.9}
{"compound": "Cc1ccc([N+](=O)[O-])cc1S(=O)(=O)N(C)/N=C/c1cnc2ccc(Br)cn12", "note": "[PIK-75] (1000 nM)", "normalised response": 86.8}
{"compound": "CC(=O)c1c(C)c2cnc(Nc3ccc(N4CCNCC4)cn3)nc2n(C2CCCC2)c1=O", "note": "[Palbociclib] (1000 nM)", "normalised response": 102}
{"compound": "COc1cc(F)c(F)c(Nc2ccc(I)cc2F)c1NS(=O)(=O)C1(C[C@H](O)CO)CC1", "note": "[Refametinib] (1000 nM)", "normalised response": 86.8}
